Data published in patent US20100273816A1, “Quinazoline Compounds” (priority 2007, published 2010).

Legend:
[1] = target: T1, human LXRα (Homo sapiens, UniProt Q13133); experiment: Ligand-binding test procedure for human LXRα (3H T0901317 tracer, flash plates); conditions: biotinylated hLXRα from E. coli extract, +4° C. over night, read-out: hLXRa binding assay Mean IC50
T1 construct: biotin (biotinylated); made in house; host or cells: E. coli (crude extract)
T1 sequence (Q13133 1-447): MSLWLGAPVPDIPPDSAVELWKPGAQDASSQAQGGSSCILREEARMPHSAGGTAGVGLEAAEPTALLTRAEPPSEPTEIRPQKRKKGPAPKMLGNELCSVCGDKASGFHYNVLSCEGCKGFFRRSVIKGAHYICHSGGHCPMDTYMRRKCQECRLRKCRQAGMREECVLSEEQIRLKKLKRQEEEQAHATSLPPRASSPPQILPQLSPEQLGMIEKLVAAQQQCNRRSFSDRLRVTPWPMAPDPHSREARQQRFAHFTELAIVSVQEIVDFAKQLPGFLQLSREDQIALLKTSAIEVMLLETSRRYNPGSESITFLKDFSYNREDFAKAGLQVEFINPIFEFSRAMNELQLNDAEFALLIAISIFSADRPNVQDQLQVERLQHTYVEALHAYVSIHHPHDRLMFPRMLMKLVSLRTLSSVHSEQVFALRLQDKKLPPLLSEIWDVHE
Method: II. Ligand-Binding Test Procedure for Human LXRα.
(§1) Buffer: 100 mM KCl, 100 mM TRIS (pH 7.4 at +4° C.), 8.6% glycerol, 0.1 mM PMSF*, 2 mM MTG*, 0.2% CHAPS (* not used in wash buffer)
Receptor source: E. coli extract from cells expressing biotinylated hLXRα. Extract was made in a similar buffer as above, but with 50 mM TRIS.
(§2) Washed streptavidin and coated flash plates with wash buffer.
(§3) Diluted receptor extract to give Bmax ˜4000 cpm and add to the wells.
(§4) Wrapped the plates in aluminum foil and stored them at +4° C. over night.
(§5) Made a dilution series in DMSO of the test ligands.
(§6) Made a 5 nM solution of the radioactive tracer in buffer.
Mixed 250 μl diluted tracer with 5 μl of the test ligand from each concentration of the dilution series.
(§7) Washed the receptor-coated flash plates.
(§8) Added 200 μl per well of the ligand/radiolabel mixture to the receptor-coated flash plates.
(§9) Wrapped the plates in aluminum foil and incubate at +4° C. over night.
(§10) Aspirated wells, and wash the flashed plates. Sealed the plate.
(§11) Measured the remaining radioactivity in the plate.

[2] = target: T2, human LXRβ (Homo sapiens, UniProt P55055); experiment: Ligand-binding test procedure for human LXRβ (3H T0901317 tracer, flash plates); conditions: biotinylated hLXRβ from E. coli extract, +4° C. over night, read-out: hLXRB binding assay Mean IC50
T2 construct: biotin (biotinylated); made in house; host or cells: E. coli (crude extract)
T2 sequence (P55055 1-460): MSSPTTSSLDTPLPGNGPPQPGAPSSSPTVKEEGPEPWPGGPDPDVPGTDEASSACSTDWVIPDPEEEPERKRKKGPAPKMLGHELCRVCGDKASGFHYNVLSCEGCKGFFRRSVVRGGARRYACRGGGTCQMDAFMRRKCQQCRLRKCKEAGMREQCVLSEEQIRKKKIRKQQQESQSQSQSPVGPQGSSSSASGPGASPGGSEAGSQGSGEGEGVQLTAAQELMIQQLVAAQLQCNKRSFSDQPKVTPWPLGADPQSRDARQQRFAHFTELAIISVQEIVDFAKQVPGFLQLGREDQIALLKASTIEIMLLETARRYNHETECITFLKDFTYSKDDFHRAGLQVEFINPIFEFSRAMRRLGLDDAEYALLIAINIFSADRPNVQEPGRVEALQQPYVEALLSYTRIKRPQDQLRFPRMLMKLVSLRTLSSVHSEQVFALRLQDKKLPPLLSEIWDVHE
Method: I. Ligand-Binding Test Procedure for Human LXRβ.
as §1
Receptor source: E. coli extract from cells expressing biotinylated hLXRβ. Extract was made in a similar buffer as above, but with 50 mM TRIS.
as §2, §3, §4, §5, §6
Mixed 250 μl diluted tracer with 50 of the test ligand from each concentration of the dilution series.
as §7, §8, §9, §10, §11

With `CS(=O)(=O)c1cccc(Oc2ccc(Cl)c(-c3ncnc4c(C(F)(F)F)cccc34)c2)c1` [Example 49, 4-{2-chloro-5-[3-(methylsulfonyl)phenoxy]phenyl}-8-(trifluoromethyl)quinazoline] the IC50 [1] was 177 nM and the IC50 [2] was 5 nM.
Molecule `CCS(=O)(=O)c1cccc(Oc2ccc(Cl)c(-c3ncnc4c(C(F)(F)F)cccc34)c2)c1` [Example 50, 4-{2-chloro-5-[3-(ethylsulfonyl)phenoxy]phenyl}-8-(trifluoromethyl)quinazoline] has an IC50 [1] of 236 nM and an IC50 [2] of 5 nM.
With `CC(C)S(=O)(=O)c1cccc(Oc2ccc(Cl)c(-c3ncnc4c(C(F)(F)F)cccc34)c2)c1` [Example 51, 4-{2-chloro-5-[3-(isopropylsulfonyl)phenoxy]phenyl}-8-(trifluoromethyl)quinazoline] the IC50 [1] was 119 nM and the IC50 [2] was 2 nM.
For `CS(=O)(=O)c1cccc(Oc2ccc(F)c(-c3ncnc4c(C(F)(F)F)cccc34)c2)c1` [Example 52, 4-{2-fluoro-5-[3-(methylsulfonyl)phenoxy]phenyl}-8-(trifluoromethyl)quinazoline], the IC50 [1] was 284 nM and the IC50 [2] was 14 nM.
Work on `CCS(=O)(=O)c1cccc(Oc2ccc(F)c(-c3ncnc4c(C(F)(F)F)cccc34)c2)c1` [Example 53, 4-{5-[3-(ethylsulfonyl)phenoxy]-2-fluorophenyl}-8-(trifluoromethyl)quinazoline] yielded an IC50 [1] of 233 nM and an IC50 [2] of 8 nM.
`CC(C)S(=O)(=O)c1cccc(Oc2ccc(F)c(-c3ncnc4c(C(F)(F)F)cccc34)c2)c1` [Example 54, 4-{2-fluoro-5-[3-(isopropylsulfonyl)phenoxy]phenyl}-8-(trifluoromethyl)quinazoline] was tested, and the IC50 [1] was 176 nM and the IC50 [2] was 5 nM.
Work on `CS(=O)(=O)c1cc(F)cc(Oc2ccc(F)c(-c3ncnc4c(C(F)(F)F)cccc34)c2)c1` [Example 55, 4-{2-fluoro-5-[3-fluoro-5-(methylsulfonyl)phenoxy]phenyl}-8-(trifluoromethyl)quinazoline] yielded an IC50 [1] of 782 nM and an IC50 [2] of 35 nM.
In the case of `CS(=O)(=O)c1cccc(COc2ccc(F)c(-c3ncnc4c(C(F)(F)F)cccc34)c2)c1` [Example 56, 4-(2-fluoro-5-{[3-(methylsulfonyl)benzyl]oxy}phenyl)-8-(trifluoromethyl)quinazoline], the IC50 [1] is reported as 787 nM and the IC50 [2] is reported as 44 nM.
`CS(=O)(=O)c1cc(Cl)cc(Oc2ccc(F)c(-c3ncnc4c(C(F)(F)F)cccc34)c2)c1` [Example 57, 4-{5-[3-chloro-5-(methylsulfonyl)phenoxy]-2-fluorophenyl}-8-(trifluoromethyl)quinazoline] showed an IC50 [1] of 2340 nM and an IC50 [2] of 214 nM.
`Cc1nc(-c2cc(Oc3cccc(S(C)(=O)=O)c3)ccc2Cl)c2cccc(C(F)(F)F)c2n1` [Example 58, 4-{2-chloro-5-[3-(methylsulfonyl)phenoxy]phenyl}-2-methyl-8-(trifluoromethyl)quinazoline] showed an IC50 [1] of 1360 nM and an IC50 [2] of 20 nM.
Work on `CCS(=O)(=O)c1cccc(Oc2ccc(Cl)c(-c3nc(C)nc4c(C(F)(F)F)cccc34)c2)c1` [Example 59, 4-{2-chloro-5-[3-(ethylsulfonyl)phenoxy]phenyl}-2-methyl-8-(trifluoromethyl)quinazoline] yielded an IC50 [1] of 2370 nM and an IC50 [2] of 19 nM.
`Cc1nc(-c2cc(Oc3cccc(S(=O)(=O)C(C)C)c3)ccc2Cl)c2cccc(C(F)(F)F)c2n1` [Example 60, 4-{2-chloro-5-[3-(isopropylsulfonyl)phenoxy]phenyl}-2-methyl-8-(trifluoromethyl)quinazoline] showed an IC50 [1] of 524 nM and an IC50 [2] of 16 nM.
In the case of `Cc1nc(-c2cc(Oc3cc(F)cc(S(C)(=O)=O)c3)ccc2Cl)c2cccc(C(F)(F)F)c2n1` [Example 61, 4-{2-chloro-5-[3-fluoro-5-(methylsulfonyl)phenoxy]phenyl}-2-methyl-8-(trifluoromethyl)quinazoline], the IC50 [1] is reported as 1790 nM and the IC50 [2] is reported as 49 nM.
For `CCS(=O)(=O)c1cc(F)cc(Oc2ccc(Cl)c(-c3nc(C)nc4c(C(F)(F)F)cccc34)c2)c1` [Example 62, 4-{2-chloro-5-[3-(ethylsulfonyl)-5-fluorophenoxy]phenyl}-2-methyl-8-(trifluoromethyl)quinazoline], the IC50 [1] was 1430 nM and the IC50 [2] was 63 nM.
Molecule `Cc1nc(-c2cc(OCc3cccc(S(C)(=O)=O)c3)ccc2Cl)c2cccc(C(F)(F)F)c2n1` [Example 63, 4-(2-chloro-5-{[3-(methylsulfonyl)benzyl]oxy}phenyl)-2-methyl-8-(trifluoromethyl)quinazoline] has an IC50 [1] of 3380 nM and an IC50 [2] of 181 nM.
Work on `CS(=O)(=O)c1cc(F)cc(Oc2ccc(F)c(-c3ncnc4c(Cl)cccc34)c2)c1` [Example 64, 8-chloro-4-{2-fluoro-5-[3-fluoro-5-(methylsulfonyl)phenoxy]phenyl}quinazoline] yielded an IC50 [1] of 1830 nM and an IC50 [2] of 81 nM.
`CCS(=O)(=O)c1cc(F)cc(Oc2ccc(F)c(-c3ncnc4c(Cl)cccc34)c2)c1` [Example 65, 8-chloro-4-{5-[3-(ethylsulfonyl)-5-fluorophenoxy]-2-fluorophenyl}quinazoline] gave an IC50 [1] of 2950 nM and an IC50 [2] of 152 nM.
Work on `CS(=O)(=O)c1cccc(COc2ccc(F)c(-c3ncnc4c(Cl)cccc34)c2)c1` [Example 66, 8-chloro-4-(2-fluoro-5-{[3-(methylsulfonyl)benzyl)oxy]phenyl}quinazoline] yielded an IC50 [1] of 1540 nM and an IC50 [2] of 99 nM.
For `CCS(=O)(=O)c1cccc(Oc2ccc(F)c(-c3ncnc4c(Cl)cccc34)c2)c1` [Example 67, 8-chloro-4-{2-fluoro-5-[3-(ethylsulfonyl)phenoxy]phenyl}quinazoline], the IC50 [1] was 712 nM and the IC50 [2] was 36 nM.
Molecule `CC(C)S(=O)(=O)c1cccc(Oc2ccc(F)c(-c3ncnc4c(Cl)cccc34)c2)c1` [Example 68, 8-chloro-4-(2-fluoro-5-{[3-(1-methylethyl)sulfonyl]phenoxy}phenyl)quinazoline] has an IC50 [1] of 597 nM and an IC50 [2] of 15 nM.
In the case of `O=S(=O)(CCCOC1CCCCO1)c1cccc(Oc2ccc(F)c(-c3ncnc4c(Cl)cccc34)c2)c1` (stereo not drawn) [Example 69, 8-chloro-4-[2-fluoro-5-(3-{[3-(tetrahydro-2H-pyran-2-yloxy)propyl]sulfonyl}phenoxy)phenyl]quinazoline], the IC50 [1] is reported as 265 nM and the IC50 [2] is reported as 95 nM.
Molecule `O=S(=O)(CCCO)c1cccc(Oc2ccc(F)c(-c3ncnc4c(Cl)cccc34)c2)c1` [Example 73, 3-({3-[3-(8-chloroquinazolin-4-yl)-4-fluorophenoxy]phenyl}sulfonyl)propan-1-ol] has an IC50 [1] of 2520 nM and an IC50 [2] of 182 nM.
For `CS(=O)(=O)c1cccc(Oc2ccc(F)c(-c3ncnc4c(Cl)cccc34)c2)c1` [Example 75, 8-chloro-4-{2-fluoro-5-[3-(methylsulfonyl)phenoxy]phenyl}quinazoline], the IC50 [1] was 718 nM and the IC50 [2] was 20 nM.
`CS(=O)(=O)c1cccc(-c2cccc(-c3nc(C4CC4)nc4c(C(F)(F)F)cccc34)c2)c1` [Example 76, 2-cyclopropyl-4-[3′-(methylsulfonyl)biphenyl-3-yl]-8-(trifluoromethyl)quinazoline] showed an IC50 [1] of 714 nM and an IC50 [2] of 153 nM.
In the case of `COc1cccc2c(-c3cc(Oc4cccc(S(C)(=O)=O)c4)ccc3Cl)ncnc12` [Example 77, 4-{2-chloro-5-[3-(methylsulfonyl)phenoxy]phenyl}-8-methoxyquinazoline], the IC50 [1] is reported as 10400 nM and the IC50 [2] is reported as 344 nM.
Work on `CS(=O)(=O)c1cccc(Oc2ccc(Cl)c(-c3ncnc4c(Cl)cccc34)c2)c1` [Example 78, 8-chloro-4-{2-chloro-5-[3-(methylsulfonyl)phenoxy]phenyl}quinazoline] yielded an IC50 [1] of 325 nM and an IC50 [2] of 26 nM.
For `O=S(=O)(CCCO)c1cccc(Oc2ccc(F)c(-c3ncnc4c(C(F)(F)F)cccc34)c2)c1` [Example 93, 3-[(3-{4-fluoro-3-[8-(trifluoromethyl)quinazolin-4-yl]phenoxy}phenyl)sulfonyl]propan-1-ol], the IC50 [1] was 714 nM and the IC50 [2] was 47 nM.
